Here are results for 53 compounds from patent US8716493B2, “Multicyclic compounds and the use thereof” (Cephalon, Inc., priority 2000, dated 2014).

A word on the IC50: it is the point on the concentration scale where inhibition reaches its midpoint.

Counter-ions that a name gives are not always drawn.

Sequence of recombinant human PARP (P09874 whole entry): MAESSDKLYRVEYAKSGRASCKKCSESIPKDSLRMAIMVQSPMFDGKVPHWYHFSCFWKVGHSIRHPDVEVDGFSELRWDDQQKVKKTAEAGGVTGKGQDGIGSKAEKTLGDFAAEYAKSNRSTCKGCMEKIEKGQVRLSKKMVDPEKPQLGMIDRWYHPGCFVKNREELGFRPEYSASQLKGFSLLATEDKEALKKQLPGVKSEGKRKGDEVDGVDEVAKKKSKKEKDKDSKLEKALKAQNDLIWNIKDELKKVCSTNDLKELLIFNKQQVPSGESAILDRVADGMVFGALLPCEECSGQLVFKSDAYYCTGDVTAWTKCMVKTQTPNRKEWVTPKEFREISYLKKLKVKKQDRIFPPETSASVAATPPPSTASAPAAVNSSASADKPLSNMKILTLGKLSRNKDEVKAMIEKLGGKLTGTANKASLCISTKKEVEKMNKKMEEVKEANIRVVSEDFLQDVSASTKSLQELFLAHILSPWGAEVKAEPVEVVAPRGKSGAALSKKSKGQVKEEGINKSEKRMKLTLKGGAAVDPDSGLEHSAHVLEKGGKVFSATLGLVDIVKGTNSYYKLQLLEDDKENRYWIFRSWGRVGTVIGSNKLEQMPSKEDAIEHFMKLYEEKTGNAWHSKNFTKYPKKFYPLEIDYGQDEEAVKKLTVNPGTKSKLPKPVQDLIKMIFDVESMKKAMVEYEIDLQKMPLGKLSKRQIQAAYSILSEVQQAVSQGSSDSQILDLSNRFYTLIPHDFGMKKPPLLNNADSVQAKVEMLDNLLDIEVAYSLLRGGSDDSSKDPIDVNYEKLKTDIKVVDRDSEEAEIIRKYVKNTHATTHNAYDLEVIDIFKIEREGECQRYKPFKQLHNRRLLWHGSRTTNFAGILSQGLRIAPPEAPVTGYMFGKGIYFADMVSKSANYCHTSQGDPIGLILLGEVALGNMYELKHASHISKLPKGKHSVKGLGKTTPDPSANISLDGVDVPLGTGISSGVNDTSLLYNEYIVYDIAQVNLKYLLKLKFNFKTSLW

One test addresses recombinant human PARP (Homo sapiens, UniProt P09874). As to the kind of experiment: Measurement of PARP enzymatic activity (transfer of radiolabeled ADP-ribose from NAD+ to protein acceptor). Type of test: biochemical.
Conditions: not given
As for the experimental part: PARP activity was monitored by transfer of radiolabeled ADP-ribose units from [^32]NAD^+ to a protein acceptor such as histone or PARP itself. […] The reactions were initiated by the addition of 100 μM NAD^+ supplemented with 2 uCi [^32]NAD^+/mL and maintained at room temperature for 12 minutes. […] The amount of acid-insoluble radioactivity, corresponding to polyADP-ribosylated protein, was quantitated in a Wallac MicroBeta scintillation counter.
Single-point inhibition data were calculated by comparing PARP, VEGFR2, or MLK3 activity in the presence of inhibitor to activity in the presence of DMSO only. Inhibition curves for compounds were generated by plotting percent inhibition versus log10 of the concentration of compound. IC50 values were calculated by nonlinear regression using the sigmoidal dose-response (variable slope) equation in GraphPad Prism as follows: y=bottom+(top−bottom)/(1+10^(log IC50^−x)*Hillslope) where y is the % activity at a given concentration of compound, x is the logarithm of the concentration of compound, bottom is the % inhibition at the lowest compound concentration tested, and top is the % inhibition at the highest compound concentration examined. The values for bottom and top were fixed at 0 and 100, respectively. IC50 values were reported as the average of at least three separate determinations.
For some compounds, inhibiting data is presented as percent inhibition at a specified concentration. Compounds are tabulated together with compound number, substituents, and enzyme inhibition data.
With `O=C1NC(=O)c2c1c1c(c3[nH]c4ccc(C(=O)N5CCC6(CC5)OCCO6)cc4c23)CCC1` [Compound 2db], the IC50 was 11 nM.

Still in this test, the particulars now being: 3 uM; Table 3.
For `NCCCCC(N)C(=O)n1c2ccc(Br)cc2c2c3c(c4c(c21)CCC4)C(=O)NC3` [Compound 6i, 3-Bromo-11-L-lysyl-5,7,8,9,10,11-hexahydrocyclopent[a]pyrrolo[3,4-c]carbazole-7(6H)-one dihydrochloride], the “PARP percent inhibition @ 3 uM” value was “[35% @”.

The same test, now with this note: PARP IC50 (nM), Table 8.
On to `O=C(NCc1cccnc1)Oc1ccc2[nH]c3c4c(c5c(c3c2c1)C(=O)NC5=O)CCC4` [Compound 15f], for which the IC50 was found to be 34 nM. Still for that read-out and setting: to `O=C(NN1CCOCC1)Oc1ccc2[nH]c3c4c(c5c(c3c2c1)C(=O)NC5=O)CCC4` [Compound 15k] belongs 20 nM; to `O=C(NCCc1ccccn1)Oc1ccc2[nH]c3c4c(c5c(c3c2c1)C(=O)NC5=O)CCC4` [Compound 15g], 36 nM; to `O=C1NC(=O)c2c1c1c(c3[nH]c4ccc(OC(=O)N5CCN(CCO)CC5)cc4c23)CCC1` [Compound 15l], 15 nM.

As for `O=C1NC(=O)c2c1c1c(c3[nH]c4ccc(OC(=O)N5CCOCC5)cc4c23)CCC1` [Compound 15a], the IC50 stood at 35 nM.

The test is the same for the next values; noted with them: Table 1; read-out: PARP IC50.
For the compound `CCN(CC)CCCN1C(=O)c2c3c(c4[nH]c5ccccc5c4c2C1=O)CCC3` [Compound 1h], the IC50 is 819 nM.

For the compound `NCCCC[C@H](N)C(=O)n1c2ccccc2c2c3c(c4c(c21)CCC4)C(=O)NC3` [Compound 1v, 11-L-Lysyl-5,7,8,9,10,11-hexahydrocyclopent[a]pyrrolo[3,4-c]carbazole-7(6H)-one dihydrochloride], the IC50 turned out to be 1400 nM. On the same count and under the same terms, to `CC(C)(C)OC(=O)NCCCC[C@H](NC(=O)OC(C)(C)C)C(=O)n1c2ccccc2c2c3c(c4c(c21)CCC4)C(=O)NC3` [Compound 1u, 11-[Bis(t-butoxycarbonyl)-L-lysyl]-5,7,8,9,10,11-hexahydrocyclopent[a]pyrrolo[3,4-c]carbazole-7(6H)-one] belongs 1500 nM.

Still in this test, the particulars now being: Table 2; read-out: PARP IC50.
Regarding `CCCC(=O)NCc1nc(-c2ccc3[nH]c4c5c(c6c(c4c3c2)C(=O)NC6=O)CCC5)cs1` [Compound 3u], the IC50 was determined as 42 nM. The same measure, in the same setting: to `CC(C)(C)OC(=O)NCCNC(=O)CCC(=O)c1ccc2[nH]c3c4c(c5c(c3c2c1)C(=O)NC5=O)CCC4` [Compound 4d] belongs 16 nM; to `O=C1NC(=O)c2c1c1c(c3[nH]c4ccc(CNCc5ccc6[nH]c7c8c(c9c(c7c6c5)C(=O)NC9=O)CCC8)cc4c23)CCC1` [Compound 2q, Bis-[5(6H), 7-dioxo-5,7,8,9,10,11-hexahydrocyclopent[a]pyrrolo[3,4-c]carbazol-3-ylmethyl]amine hydrochloride], 167 nM; to `CNc1nc(-c2ccc3[nH]c4c5c(c6c(c4c3c2)C(=O)NC6=O)CCC5)cs1` [Compound 3h], 54 nM. Same read-out and setting: as for `CC(=O)Oc1ccc2[nH]c3c4c(c5c(c3c2c1)C(=O)NC5=O)CCC4` [Compound 2au], the figure is 33 nM; as for `O=C1NC(=O)c2c1c1c(c3[nH]c4ccc(C(=O)N5CCOCC5)cc4c23)CCC1` [Compound 2cp], 12 nM; as for `CCN(CC)Cc1ccc2[nH]c3c4c(c5c(c3c2c1)C(=O)NC5=O)CCC4` [Compound 2bm], 17 nM. As to `O=C(NCC1CCCO1)c1ccc2[nH]c3c4c(c5c(c3c2c1)C(=O)NC5=O)CCC4` (centres unmarked) [Compound 2cr], the half-inhibitory concentration (IC50) was found to be 14 nM.

On to `CS(=O)(=O)Cc1nc(-c2ccc3[nH]c4c5c(c6c(c4c3c2)C(=O)NC6=O)CCC5)cs1` [Compound 3z], for which the IC50 was 38 nM. `O=C1NC(=O)c2c1c1c(c3[nH]c4ccc(CN5CCCC5)cc4c23)CCC1` [Compound 2bw]: the IC50 was 35 nM. For the compound `CN1N=C(c2ccc3[nH]c4c5c(c6c(c4c3c2)C(=O)NC6=O)CCC5)CCC1=O` [Compound 4m], the concentration for half-maximal inhibition (IC50) stood at 12 nM. Same read-out and setting: to `CN(CCc1ccccn1)C(=O)c1ccc2[nH]c3c4c(c5c(c3c2c1)C(=O)NC5=O)CCC4` [Compound 2cw] belongs 24 nM. On the same count and under the same terms, as for `COC(=O)CCC(=O)NCc1ccc2[nH]c3c4c(c5c(c3c2c1)C(=O)NC5=O)CCC4` [Compound 2z, 3-(N-(3-(Methoxycarbonyl)propanoyl)aminomethyl)-5,7,8,9,10,11-hexahydrocyclopent[a]pyrrolo[3,4-c]carbazole-5(6H), 7-dione], the figure is 10 nM. On the same count and under the same terms, to `O=CNCc1ccc2[nH]c3c4c(c5c(c3c2c1)C(O)NC5=O)CCC4` (centres unmarked) [Compound 2cf] belongs 124 nM. `O=C(CN1CCCCC1)c1ccc2[nH]c3c4c(c5c(c3c2c1)C(=O)NC5=O)CCC4` [Compound 2i]: the IC50 is 20 nM. Turning to `Nc1nc(-c2ccc3[nH]c4c5c(c6c(c4c3c2)C(=O)NC6=O)CCC5)cs1` [Compound 3a], the IC50 is 25 nM. On to `CCC(=O)NCc1nc(-c2ccc3[nH]c4c5c(c6c(c4c3c2)C(=O)NC6=O)CCC5)cs1` [Compound 3s], for which the 50% inhibitory concentration (IC50) turned out to be 56 nM. Still for that read-out and setting: to `CCCCC(=O)NCc1nc(-c2ccc3[nH]c4c5c(c6c(c4c3c2)C(=O)NC6=O)CCC5)cs1` [Compound 3v] belongs 56 nM; to `NCc1ccc2[nH]c3c4c(c5c(c3c2c1)C(=O)NC5=O)CCC4` [Compound 2p, 3-(Aminomethyl)-5,7,8,9,10,11-hexahydrocyclopent[a]pyrrolo[3,4-c]carbazole-5(6H), 7-dione hydrochloride], 13 nM.

For the compound `N#CCc1ccc2[nH]c3c4c(c5c(c3c2c1)C(=O)NC5=O)CCC4` [Compound 2bc], the IC50 amounted to 24 nM.

Turning to `Cc1sc(N)nc1-c1ccc2[nH]c3c4c(c5c(c3c2c1)C(=O)NC5=O)CCC4` [Compound 3d], the half-maximal inhibitory concentration (IC50) is 50 nM. The same measure, in the same setting: to `O=C(O)c1ccc2[nH]c3c4c(c5c(c3c2c1)C(=O)NC5=O)CCC4` [Compound 2bd] belongs 85 nM; to `O=C1CCC(c2ccc3[nH]c4c5c(c6c(c4c3c2)C(=O)NC6=O)CCC5)=NN1` [Compound 4l], 17 nM; to `O=C1NC(=O)c2c1c1c(c3[nH]c4ccc(CN5CCCCC5)cc4c23)CCC1` [Compound 2bx], 35 nM. Still for that read-out and setting: to `CCCCNCc1ccc2[nH]c3c4c(c5c(c3c2c1)C(=O)NC5=O)CCC4` [Compound 2bp] belongs 25 nM; to `O=C(Cn1cnnn1)NCc1ccc2[nH]c3c4c(c5c(c3c2c1)C(=O)NC5=O)CCC4` [Compound 2by], 14 nM; to `NCCCC(=O)NCc1ccc2[nH]c3c4c(c5c(c3c2c1)C(=O)NC5=O)CCC4` [Compound 2y, 3-(N-(4-(Amino)butanoyl)aminomethyl)-5,7,8,9,10,11-hexahydrocyclopent[a]pyrrolo[3,4-c]carbazole-5(6H), 7-dione], 54 nM. The same measure, in the same setting: as for `COC(=O)c1ccc2[nH]c3c4c(c5c(c3c2c1)C(=O)NC5=O)CCC4` [Compound 2bi], the figure is 27 nM.

The test is the same for the next values; noted with them: Table 3; read-out: PARP IC50.
As to `N#Cc1ccc2c(c1)c1c3c(c4c(c1n2C(=O)[C@@H](N)CCCCN)CCC4)C(=O)NC3` [Compound 6j, 3-Cyano-11-L-lysyl-5,7,8,9,10,11-hexahydrocyclopent[a]pyrrolo[3,4-c]carbazole-7(6H)-one dihydrochloride], the IC50 came to 460 nM.

Still in this test, the particulars now being: Table 4; read-out: PARP IC50.
Regarding `O=C1NC(=O)c2c1c1c(c3[nH]c4ncccc4c23)CCC1` [Compound 8h], the half-inhibitory concentration (IC50) was 3 nM. On the same count and under the same terms, as for `O=C1NC(=O)c2c1c1c(c3[nH]cc(Br)c23)CCC1` [Compound 8c, 3-Bromo-1,6,7,8-tetrahydrocyclopent[g]indole-4,5-dicarboxylate imide], the figure is 5 nM.

The same test, now with this note: Table 18; read-out: PARP IC50.
`COc1c(Br)ccc2[nH]c3c4c(c5c(c3c12)C(=O)NC5=O)CCC4` [Compound 14m]: the IC50 turned out to be 67 nM.

With `COc1cc[n+]([O-])c2[nH]c3c4c(c5c(c3c12)C(=O)NC5=O)CCC4` [Compound 8m], the 50% inhibitory concentration (IC50) stood at 17 nM. Same read-out and setting: to `CCOCCOc1ccnc2[nH]c3c4c(c5c(c3c12)C(=O)NC5=O)CCC4` [Compound 8ab] belongs 11 nM. Still for that read-out and setting: to `CCOc1ccnc2[nH]c3c4c(c5c(c3c12)C(=O)NC5=O)CCC4` [Compound 8y] belongs 5 nM. For the compound `COc1c(I)ccc2[nH]c3c4c(c5c(c3c12)C(=O)NC5=O)CCC4` [Compound 14n], the IC50 stood at 126 nM.

In the case of `CCN(CC)CCOc1cccc2[nH]c3c4c(c5c(c3c12)C(=O)NC5=O)CCC4` [Compound 14e], the 50% inhibitory concentration (IC50) was found to be 526 nM.

`COc1c(C#N)ccc2[nH]c3c4c(c5c(c3c12)C(=O)NC5=O)CCC4` [Compound 14o]: the concentration for half-maximal inhibition (IC50) was 7 nM.

For the compound `O=C1NC(=O)c2c1c1c(c3[nH]c4cccc(O)c4c23)CCC1` [Compound 14c], the IC50 turned out to be 176 nM. With `CO[n+]1cccc2c3c4c(c5c(c3[nH]c21)CCC5)C(=O)NC4=O` [Compound 8o], the IC50 came out at 4 nM. On the same count and under the same terms, to `COc1cccc2[nH]c3c4c(c5c(c3c12)C(=O)N(CN1CCOCC1)C5=O)CCC4` [Compound 16d] belongs 11 nM; to `CC(C)OCCOc1cccc2[nH]c3c4c(c5c(c3c12)C(=O)NC5=O)CCC4` [Compound 14j], 70 nM; to `COc1cnc2[nH]c3c4c(c5c(c3c2c1)C(=O)NC5=O)CCC4` [Compound 8w], 4 nM.
